# Measurements reported in patent publication US8012973B2, “Compounds for the treatment of auricular fibrillation” (Proyecto de Biomedicina Cima S.L., priority 2005, dated 2011).
# Entries after “also recorded” stand apart in the source; their conditions may differ.
# Legend:
# [1] = tested on: isolated human atrial myocytes; experiment: Spontaneous SR calcium release (calcium sparks and waves), confocal calcium imaging of fluo-3 loaded cells; format: cell-based; details: for basal calcium wave frequency measured by confocal microscopy: 50 nM, cells from atrial fibrillation patients with elevated basal SR calcium release, n=6, both antagonists pooled (FIG. 3B left)
# Experimental: (§1) Myocytes were isolated from human atrial tissue samples as previously described (cf. L. Hove-Madsen et al., “Atrial fibrillation is associated with increased spontaneous calcium release from the sarcoplasmic reticulum in human atrial myocytes”, Circulation 2004, vol. 110, pp. 1358-63). Briefly, the samples were rinsed, cut into small pieces in a calcium free solution containing 30 mM butanedione monoxime (BDM), and incubated at 35° C. in a Ca^2+ free solution containing 0.5 mg/ml collagenase (Worthington type 2, 318 u/mg) and 0.5 mg/ml proteinase (Sigma type XXIV, 11 u/mg solid). After 45 minutes, the tissue was removed from the enzyme solution and cells were disgregated in Ca^2+-free solution with a Pasteur pipette. The remaining tissue was digested for 3×15 minutes in a fresh calcium free solution containing 0.4 mg/ml collagenase. […] Only elongated cells with clear cross striations and without granulation were used for experiments.
# Calcium sparks and calcium waves were detected in fluo-3 loaded cells using a laser-scanning confocal microscope (Leica TCS SP2 AOBS, Germany). […] Fluorescence emission was collected between 500 and 650 nm with the excitation at 488 nm attenuated to 1-5%. Calcium sparks and calcium waves were measured at resting conditions during 2×10.24 s, at a scan rate of 1 kHz. Calcium sparks were detected as an increase in the signal mass of a 3 μm section through the center of a calcium spark, without any detectable increase in an adjacent 3 μm section. An increase in the signal mass in two or more adjacent 3 μm sections were counted as calcium waves. The amplitude of each calcium spark and its half-life were determined from an exponential fit of the decaying phase of the calcium spark transient. The calcium spark frequency was determined for each cell and normalized to the scanned cell length.
# Electrophysiological and confocal calcium imaging experiments were carried out without knowledge about the clinical data of the patients. The Ca^2+ sparks and Ca^2+ waves recorded in cells from the same patient were averaged. […]
# [2] = tested on: isolated human atrial myocytes; experiment: Patch-clamp recording of spontaneous Na-Ca exchange current (INCX) associated with calcium waves, membrane potential clamped at -80 mV; format: cell-based; details: for basal calcium wave frequency measured by patch clamp technique: cells from atrial fibrillation patients with elevated basal SR calcium release, n=7, both antagonists pooled (FIG. 3B right); for reversal of the specific effect of CGS 21680 on spontaneous SR calcium release: antagonist concentration not stated at this place
# Experimental: as §1
# The transient inward Na—Ca exchange current associated with calcium waves was recorded in the perforated patch configuration using a software controlled patch-clamp amplifier (EPC 10, HEKA, Germany). The pipette resistance was 1.5-4 MΩ. Experiments were carried out at room temperature and began when the access resistance was stable and had decreased to less than 5 times the pipette resistance. The extracellular solution contained (in mM): NaCl 127, tetraethyl ammonium (TEA) 5, HEPES 10, NaHCO3 4, NaH2PO4 0.33, glucose 10, pyruvic acid 5, CaCl2 2, MgCl2 1.8, (pH=7.4). The pipette solution contained (in mM): aspartic acid 109, CsCl 47, Mg2ATP 3, MgCl2 1, Na2phosphocreatine 5, Li2GTP 0.42, HEPES 10 and 250 μg/ml amphotericin B, (pH=7.2). The A2A receptor agonist […], the antagonists ZM 241385 and SCH 58261, and the protein kinase A inhibitor H-89 were all dissolved in DMSO and kept as 10 mM stock solutions. The caffeine releasable SR calcium content was measured by transiently exposing cells to 10 mM caffeine. The time integral of the resulting Na—Ca exchange current was converted to pmoles […] of calcium released from the SR assuming a stoichiometry of 3Na^+:1Ca^2+ for the Na—Ca exchanger.
# Electrophysiological and confocal calcium imaging experiments were carried out without knowledge about the clinical data of the patients. The Ca^2+ sparks and Ca^2+ waves recorded in cells from the same patient were averaged. Unless otherwise stated, average values from each patient were used for statistical analysis and expressed as mean±S.E.M. Data sets were tested for normality. Student's t-test was used to assess significant differences when testing a specific effect. ANOVA was used for comparison of multiple effects and Student-Newman-Keuls post test was used to evaluate the significance of specific effects.
smiles,measurement,setting,value
CCNC(=O)[C@H]1O[C@@H](n2cnc3c(N)nc(NCCc4ccc(CCC(=O)O)cc4)nc32)[C@H](O)[C@@H]1O [CGS 21680],number of calcium waves,"[1]; myocytes from patients with atrial fibrillation, preincubation with 200 nM",increased the number of calcium waves
same,number of spontaneous calcium waves measured as the Na-Ca exchange current (INCX),"[2]; 200 nM, -80 mV, atrial fibrillation patients (FIG. 2A, B, D)",reversibly increased the number of spontaneous calcium waves
O=S(=O)(NCCNC/C=C/c1ccc(Br)cc1)c1cccc2cnccc12 [H-89],effect on the stimulatory effect of 200 nM CGS 21680 (wave frequency),"[2]; 10 μM H-89, myocytes from 5 patients with atrial fibrillation (FIG. 2E), p=0.002 CGS vs. CGS+H-89",abolished the stimulatory effect; also recorded: eliminated
same,spontaneous calcium release / calcium wave frequency relative to baseline before CGS 21680,"[2]; 10 μM H-89 with 200 nM CGS 21680, p=0.05 vs. control (FIG. 2E)",reduced spontaneous calcium release to a significantly lower level than the baseline; also recorded: reduces the calcium wave frequency below baseline level
Nc1nc2c(cnn2CCc2ccccc2)c2nc(-c3ccco3)nn12 [SCH 58261],basal calcium wave frequency measured by confocal microscopy,[1],significantly reduced the calcium wave frequency
same,basal calcium wave frequency measured by patch clamp technique,[2]; 50 nM,significantly reduced the calcium wave frequency
same,spontaneous INCX frequency (basal),"[2]; 50 nM, samples of patients with atrial fibrillation, -80 mV (FIG. 3A)",reversible reduction
same,reversal of the specific effect of CGS 21680 on spontaneous SR calcium release,[2],reversed
Nc1nc(NCCc2ccc(O)cc2)nc2nc(-c3ccco3)nn12 [ZM 241385],basal calcium wave frequency measured by confocal microscopy,[1],significantly reduced the calcium wave frequency
same,basal calcium wave frequency measured by patch clamp technique,[2]; 50 nM,significantly reduced the calcium wave frequency
same,reversal of the stimulatory effect of 200 nM CGS 21680 on spontaneous INCX,"[2]; antagonist 1 μM, -80 mV (FIG. 2C)",able to revert the stimulatory effect
same,reversal of the specific effect of CGS 21680 on spontaneous SR calcium release,[2],reversed
